Tested on: nude rat skin
Assay: transdermic passage of pentasaccharide sodium salt by iontophoresis at set intensity through nude rat skin
Assay type: in vitro ADME
Conditions: for Utilization factor of the active principle: quantity at 22 hours/initial quantity
Protocol: The procedure was carried out in iontophoresis cells with identical structure. Each iontophoresis cell consisted of three coaxial, adjacent cylindrical compartments of 2 cm^2 cross section, namely, in this order, a donor compartment, a receiver compartment and a back electrode compartment, these three compartments each being separated from the next in leaktight fashion by a piece of nude rat skin from the same batch, serving as a skin sample for studying the transdermic diffusion. […] The receiver compartment, with a volume of 10 ml, contained a 9 g/liter solution of NaCl and was agitated using a magnetic bar. The back electrode compartment, with a volume of 0.5 ml, contained a 2% by weight aqueous solution of NaCl. At its end opposite the receiver compartment, the donor compartment was fitted with a negative electrode or cathode consisting of a 15 μm thick film of silver chloridized on one face to contain an AgCl layer corresponding to 2 mAh/cm^2. In the same way as the donor compartment, the back electrode compartment was equipped with a positive electrode or anode (back electrode) consisting of a 15 μm silver film weakly chloridized on the surface (a quantity of AgCl corresponding to 0.1 mAh/cm^2). The chloridized face of each electrode was turned towards the rat skin sample.
The rat skin samples had had the subcutaneous tissues removed and were preserved by freezing at -40° C. until they were fitted in the iontophoresis cell, with the dermal faces turned towards the receiver compartment, after having spent 15 minutes in physiological salt solution.
For each of the tests which were carried out, six identical iontophoresis cells were started up simultaneously. The active exchange surface was 2 cm^2 for each skin sample. […]
At the end of the said period, an aliquot of the medium contained in the receiver compartment was taken, and the quantity of pentasaccharide which had passed through the skin separating the donor and receiver compartments of each cell was determined by assaying. A second sample was taken 22 hours after the start of each experiment, i.e. 17 hours after the end of the electric signal, in order to allow a significant proportion of the quantities of pentasaccharide active principle held in the skin sample to diffuse in the absence of subcutaneous blood circulation.
Five tests 1a to 1e were carried out as follows:
For each of the tests, the average antifactor Xa activity per ml of medium was determined on aliquots taken from the receiver compartments of the six cells, this representing the quantity of pentasaccharide which had diffused into these compartments after the 5 hours of applying the current and 22 hours after the start of each experiment, i.e. 17 hours after the end of the said current.
The assay of the pentasaccharide in the receiver compartment was based on investigating its antifactor Xa activity. […] The calibration curve was established using a "Golden Standard" pentasaccharide solution to which an antifactor Xa activity equal to 13 units per ml was assigned.
The data presented in this table are average results calculated over a series of six identical cells receiving the same quantities of electricity.

[1] = Test 1a: no membrane, 5 mg/cm^2, 1 mAh/cm^2
[2] = Test 1b: no membrane, 1 mg/cm^2, 1 mAh/cm^2
[3] = Test 1c: cellulose acetate/POEG membrane 75 μm, 1 mg/cm^2, 0.9 mAh/cm^2
[4] = Test 1e: PEBAX MV 1074 membrane 50 μm, hydrogel, 0.5 mg/cm^2, 1 mAh/cm^2
[5] = Test 1d (PEBAX MV 1041 membrane) vs Test 1b (no membrane)
[6] = Test 1d: PEBAX MV 1041 membrane 50 μm, 1 mg/cm^2, 1 mAh/cm^2

O=C(O)C1OC(OC2C(COS(=O)(=O)O)OC(OC3C(C(=O)O)OC(OC4C(COS(=O)(=O)O)OC(O)C(NS(=O)(=O)O)C4O)C(OS(=O)(=O)O)C3O)C(NS(=O)(=O)O)C2OS(=O)(=O)O)C(O)C(O)C1OC1OC(COS(=O)(=O)O)C(O)C(O)C1NS(=O)(=O)O (stereo not drawn) [pentasaccharide]
Quantity of active principle at 5 hours (Passive, no current, 5 mg/cm^2): 1 μg/cm^2
Quantity of active principle at 22 hours (Passive, no current, 5 mg/cm^2): 1.5 μg/cm^2
Quantity of active principle per mAh (Passive, no current, 5 mg/cm^2): 1.5 μg/cm^2
aXa activity/ml at 5 hours (Passive, no current, 5 mg/cm^2): 0.2 mL⁻¹
aXa activity/ml at 22 hours (Passive, no current, 5 mg/cm^2): 0.3 mL⁻¹
Utilization factor of the active principle (Passive, no current, 5 mg/cm^2): 0.03%
Quantity of active principle at 5 hours [1]: 115 μg/cm^2
Quantity of active principle at 22 hours [1]: 150 μg/cm^2
Quantity of active principle per mAh [1]: 150 μg/cm^2
aXa activity/ml at 5 hours [1]: 23 mL⁻¹
aXa activity/ml at 22 hours [1]: 30 mL⁻¹
Utilization factor of the active principle [1]: 3%
Quantity of active principle at 5 hours [2]: 110 μg/cm^2
Quantity of active principle at 22 hours [2]: 140 μg/cm^2
Quantity of active principle per mAh [2]: 140 μg/cm^2
aXa activity/ml at 5 hours [2]: 22 mL⁻¹
aXa activity/ml at 22 hours [2]: 28 mL⁻¹
Utilization factor of the active principle [2]: 14%
Quantity of active principle at 5 hours [3]: 75 μg/cm^2
Quantity of active principle at 22 hours [3]: 110 μg/cm^2
Quantity of active principle per mAh [3]: 125 μg/cm^2
aXa activity/ml at 5 hours [3]: 15 mL⁻¹
aXa activity/ml at 22 hours [3]: 20 mL⁻¹
Utilization factor of the active principle [3]: 11%
Quantity of active principle at 5 hours [4]: 245 μg/cm^2
Quantity of active principle at 22 hours [4]: 310 μg/cm^2
Quantity of active principle per mAh [4]: 310 μg/cm^2
aXa activity/ml at 5 hours [4]: 49 mL⁻¹
aXa activity/ml at 22 hours [4]: 62 mL⁻¹
Utilization factor of the active principle [4]: 62%
active principle depletion factor of the donor electrode assembly (in words) [5]: increased very substantially
quantity of active principle administered per unit quantity of electricity (in words) [5]: increased very substantially
Quantity of active principle at 5 hours [6]: 295 μg/cm^2
Quantity of active principle at 22 hours [6]: 390 μg/cm^2
Quantity of active principle per mAh [6]: 390 μg/cm^2
aXa activity/ml at 5 hours [6]: 59 mL⁻¹
aXa activity/ml at 22 hours [6]: 70 mL⁻¹
Utilization factor of the active principle [6]: 39%
passive transport of the pentasaccharide (in words) (no current): very low
